One test deals with corn earworm larvae. The test is described as follows: Leaf dip test, corn earworm larvae. It counts as in vivo. The settings on record: Helicoverpa zea, foliar, Bta/Btk 5.4 ppm, chlorantraniliprole 0.0009 ppm, read-out: % Efficacy. The text has this: (§1) The following examples were used to determine the synergy of Bacillus thuringiensis subsp. aizawai, Bacillus thuringiensis subsp. kurstaki and chlorantraniliprole when controlling diamondback moth, beet armyworm, sugarcane borer, soybean looper, corn earworm, cabbage looper, and southwestern corn borer. Sympatico™ emulsifiable suspension (available from Valent BioSciences Corporation) was used as the source of Bacillus thuringiensis subsp. aizawai and Bacillus thuringiensis kurstaki. Sympatico™ contains about a 1:0.67 ratio of Bacillus thuringiensis subsp. kurstaki fermentation solids, spores and toxins to Bacillus thuringiensis subsp. aizawai fermentation solids, spores and toxins. Coragen® was used as the source of chlorantraniliprole. The present invention is not limited to the commercial products used in the examples. In each example below, the studies were conducted as follows.
(§2) For these tests, standardized laboratory leaf dip methods were used to inoculate plant material with treatment(s). Dry, treated leaves were placed into Petri dishes (100×25 mm) containing filter paper wetted with 500 μl of distilled H2O (“dH2O”). Each dish was then infested with between 5 and 10 larvae, dependent on species. Efficacy ratings were taken at specified intervals. Synergy ratings were calculated for each test. […]

The subject of another test is beet armyworm larvae. Description: Leaf dip test, beet armyworm larvae. In kind it is in vivo. The conditions noted are these: Spodoptera exigua, foliar, Bta/Btk 1.69 ppm, chlorantraniliprole 0.0009 ppm, read-out: % Efficacy.
From the text: as §1, §2

For test [1], the system named is southwestern corn borer larvae. The test is described as follows: Leaf dip test, southwestern corn borer larvae. It counts as in vivo, Diatraea grandiosella. The conditions noted are these: foliar, Bta/Btk 1.69 ppm, chlorantraniliprole 0.0009 ppm, read-out: % Efficacy.
From the text: as §1, §2

Another test concerns diamondback moth larvae. The test is described as follows: Leaf dip test, diamondback moth larvae. In kind it is in vivo. The conditions noted are these: Plutella xylostella, foliar, Bta/Btk 1.69 ppm, chlorantraniliprole 0.0009 ppm, read-out: % Efficacy.
From the text: as §1, §2

The subject of another test is sugarcane borer larvae. The test is described as follows: Leaf dip test, sugarcane borer larvae. It counts as in vivo. The conditions noted are these: Diatraea saccharalis, foliar, Bta/Btk 1.69 ppm, chlorantraniliprole 0.0009 ppm, read-out: % Efficacy.
From the text: as §1, §2

The next test relates to cabbage looper larvae. Description: Leaf dip test, cabbage looper larvae. It counts as in vivo. The settings on record: Trichoplusia ni, foliar, Bta/Btk 1.69 ppm, chlorantraniliprole 0.0009 ppm, read-out: % Efficacy.
From the text: as §1, §2

A further test relates to soybean looper larvae. Description: Leaf dip test, soybean looper larvae. It counts as in vivo, Chrysodeixis includens. The settings on record: foliar, Bta/Btk 0.54 ppm, chlorantraniliprole 0.045 ppm, read-out: % Efficacy.
From the text: as §1, §2

Read-outs that look alike come from different tables or passages of the source.

As to `CNC(=O)c1cc(Cl)cc(C)c1NC(=O)c1cc(Br)nn1-c1ncccc1Cl` [Chlorantraniliprole], the Emax at 0.0009 ppm in the test on corn earworm larvae (24 h after treatment) was 3%; in the test with corn earworm larvae (48 h after treatment) it was 3%; in the test with beet armyworm larvae (24 h after treatment), 3%; with beet armyworm larvae (48 h after treatment), 7%; in test [1] (24 h after treatment), 3%; in test [1] (48 h after treatment) it was 3%. Further, the Emax at 0.0009 ppm in the test on diamondback moth larvae (24 h after treatment) worked out at 7%; in the test with diamondback moth larvae (48 h after treatment), 13%; in the test on sugarcane borer larvae (24 h after treatment) it was 3%; with sugarcane borer larvae (48 h after treatment) it was 13%; in the test with cabbage looper larvae (24 h after treatment) it was 3%; in the test with cabbage looper larvae (48 h after treatment), 10%. Further, the Emax at 0.045 ppm with soybean looper larvae (24 h after treatment) was determined as 3%; in the test on soybean looper larvae (48 h after treatment) it was 14%.

The values above are taken from patent US9723844B2, “Synergistic Bacillus thuringiensis subsp. aizawai, Bacillus thuringiensis subsp. kurstaki and chlorantraniliprole mixtures for diamondback moth, beet armyworm, sugarcane borer, soybean looper, corn earworm, cabbage looper, and southwestern corn borer control” (Valent BioSciences Corporation, priority 2015, dated 2017).
